# Measurements published in ChEMBL document CHEMBL4138123, “Design, synthesis and biological evaluation of novel pyrazolochalcones as potential modulators of PI3K/Akt/mTOR pathway and inducers of apoptosis in breast cancer cells” (Eur J Med Chem, 2017).
# What was measured:
# Format in all cases: functional
# [1] = test system: M14; assay: Cytotoxicity against human M14 cells assessed as growth inhibition after 48 hrs by sulforhodamine B assay; conditions: M14, 48 h
# [2] = test system: PC-3; assay: Cytotoxicity against human PC3 cells assessed as cell growth at 100 uM after 48 hrs by sulforhodamine B assay relative to control; conditions: PC-3, 48 h, read-out: Activity
# [3] = test system: 786-0; assay: Cytotoxicity against human 786-0 cells assessed as cell growth at 0.1 uM after 48 hrs by sulforhodamine B assay relative to control; conditions: 786-0, 48 h, read-out: Activity
# [4] = test system: A498; assay: Cytotoxicity against human A498 cells assessed as cell growth at 1 uM after 48 hrs by sulforhodamine B assay relative to control; conditions: A498, 48 h, read-out: Activity
# [5] = test system: SK-MEL-5; assay: Cytotoxicity against human SK-MEL-5 cells assessed as cell growth at 1 uM after 48 hrs by sulforhodamine B assay relative to control; conditions: SK-MEL-5, 48 h, read-out: Activity
# [6] = test system: A549; assay: Cytotoxicity against human A549/ATCC cells assessed as cell growth at 0.01 uM after 48 hrs by sulforhodamine B assay relative to control; conditions: A549, 48 h, read-out: Activity
# [7] = test system: Malme-3M; assay: Cytotoxicity against human MALME-3M cells assessed as cell growth at 10 uM after 48 hrs by sulforhodamine B assay relative to control; conditions: read-out: Activity
# [8] = test system: SK-MEL-28; assay: Cytotoxicity against human SK-MEL-28 cells assessed as cell growth at 1 uM after 48 hrs by sulforhodamine B assay relative to control; conditions: SK-MEL-28, 48 h, read-out: Activity
# [9] = test system: KM12; assay: Cytotoxicity against human KM12 cells assessed as growth inhibition after 48 hrs by sulforhodamine B assay; conditions: KM12, 48 h
# [10] = test system: CCRF-CEM; assay: Cytotoxicity against human CCRF-CEM cells assessed as cell growth at 10 uM after 48 hrs by sulforhodamine B assay relative to control; conditions: read-out: Activity
# [11] = test system: NCI-H522; assay: Cytotoxicity against human NCI-H522 cells assessed as cell growth at 10 uM after 48 hrs by sulforhodamine B assay relative to control; conditions: NCI-H522, 48 h, read-out: Activity
# [12] = test system: NCI-H522; assay: Cytotoxicity against human NCI-H522 cells assessed as cell growth at 0.1 uM after 48 hrs by sulforhodamine B assay relative to control; conditions: NCI-H522, 48 h, read-out: Activity
# [13] = test system: ACHN; assay: Cytotoxicity against human ACHN cells assessed as cell growth at 0.1 uM after 48 hrs by sulforhodamine B assay relative to control; conditions: read-out: Activity
# [14] = test system: HL-60(TB); assay: Cytotoxicity against human HL-60(TB) cells assessed as growth inhibition after 48 hrs by sulforhodamine B assay; conditions: HL-60, 48 h
# [15] = test system: TK-10; assay: Cytotoxicity against human TK10 cells assessed as growth inhibition after 48 hrs by sulforhodamine B assay; conditions: TK-10, 48 h
# [16] = test system: OVCAR-3; assay: Cytotoxicity against human OVCAR3 cells assessed as growth inhibition after 48 hrs by sulforhodamine B assay; conditions: OVCAR-3, 48 h
# [17] = test system: UO-31; assay: Cytotoxicity against human UO31 cells assessed as cell growth at 100 uM after 48 hrs by sulforhodamine B assay relative to control; conditions: UO-31, 48 h, read-out: Activity
# [18] = test system: NCI-H322M; assay: Cytotoxicity against human NCI-H322M cells assessed as cell growth at 0.01 uM after 48 hrs by sulforhodamine B assay relative to control; conditions: read-out: Activity
# [19] = test system: MDA-MB-435; assay: Cytotoxicity against human MDA-MB-435 cells assessed as cell growth at 0.01 uM after 48 hrs by sulforhodamine B assay relative to control; conditions: MDA-MB-435, 48 h, read-out: Activity
# [20] = test system: TK-10; assay: Cytotoxicity against human TK10 cells assessed as cell growth at 0.01 uM after 48 hrs by sulforhodamine B assay relative to control; conditions: TK-10, 48 h, read-out: Activity
# [21] = test system: A498; assay: Cytotoxicity against human A498 cells assessed as cell growth at 0.01 uM after 48 hrs by sulforhodamine B assay relative to control; conditions: A498, 48 h, read-out: Activity
# [22] = test system: HCT-15; assay: Cytotoxicity against human HCT15 cells assessed as cell growth at 0.1 uM after 48 hrs by sulforhodamine B assay relative to control; conditions: HCT-15, 48 h, read-out: Activity
# [23] = test system: NCI-H226; assay: Cytotoxicity against human NCI-H226 cells assessed as cell growth at 0.1 uM after 48 hrs by sulforhodamine B assay relative to control; conditions: NCI-H226, 48 h, read-out: Activity
# [24] = test system: SF-539; assay: Cytotoxicity against human SF539 cells assessed as growth inhibition after 48 hrs by sulforhodamine B assay; conditions: SF-539, 48 h
# [25] = test system: NCI-H226; assay: Cytotoxicity against human NCI-H226 cells assessed as cell growth at 10 uM after 48 hrs by sulforhodamine B assay relative to control; conditions: NCI-H226, 48 h, read-out: Activity
# [26] = test system: NCI-H460; assay: Cytotoxicity against human NCI-H460 cells assessed as cell growth at 1 uM after 48 hrs by sulforhodamine B assay relative to control; conditions: NCI-H460, 48 h, read-out: Activity
# [27] = test system: MDA-MB-435; assay: Cytotoxicity against human MDA-MB-435 cells assessed as cell growth at 1 uM after 48 hrs by sulforhodamine B assay relative to control; conditions: MDA-MB-435, 48 h, read-out: Activity
# [28] = test system: K562; assay: Cytotoxicity against human K562 cells assessed as cell growth at 0.01 uM after 48 hrs by sulforhodamine B assay relative to control; conditions: K562, 48 h, read-out: Activity
# [29] = test system: UACC-257; assay: Cytotoxicity against human UACC257 cells assessed as cell growth at 0.1 uM after 48 hrs by sulforhodamine B assay relative to control; conditions: UACC-257, 48 h, read-out: Activity
# [30] = test system: SF-268; assay: Cytotoxicity against human SF268 cells assessed as cell growth at 0.01 uM after 48 hrs by sulforhodamine B assay relative to control; conditions: SF-268, 48 h, read-out: Activity
# [31] = test system: T47D; assay: Cytotoxicity against human T47D cells assessed as cell growth at 0.01 uM after 48 hrs by sulforhodamine B assay relative to control; conditions: read-out: Activity
# [32] = test system: UACC-62; assay: Cytotoxicity against human UACC62 cells assessed as growth inhibition after 48 hrs by sulforhodamine B assay; conditions: UACC-62, 48 h
# [33] = test system: OVCAR-8; assay: Cytotoxicity against human OVCAR8 cells assessed as cell growth at 0.01 uM after 48 hrs by sulforhodamine B assay relative to control; conditions: OVCAR-8, 48 h, read-out: Activity
# [34] = test system: NCI-H226; assay: Cytotoxicity against human NCI-H226 cells assessed as cell growth at 100 uM after 48 hrs by sulforhodamine B assay relative to control; conditions: NCI-H226, 48 h, read-out: Activity
# [35] = test system: DU-145; assay: Cytotoxicity against human DU145 cells assessed as cell growth at 0.01 uM after 48 hrs by sulforhodamine B assay relative to control; conditions: DU-145, 48 h, read-out: Activity
structure (smiles),measurement,setting,value
COc1ccc(-c2cc(/C=C/C(=O)c3ccc(OC)c(OC)c3)[nH]n2)cc1,GI50,[1],2.17 µM
same,LC50 (concentration killing 50% of cells),[1],13.8 µM
same,TGI,[1],4.97 µM
same,growth at 100 µM,[2],-90%
same,growth at 0.1 µM,[3],102%
same,growth at 1 µM,[4],69%
same,growth at 1 µM,[5],88%
same,growth at 0.01 µM,[6],93%
same,growth at 10 µM,[7],-70%
same,growth at 1 µM,[8],90%
same,GI50,[9],1.38 µM
same,LC50,[9],7.01 µM
same,TGI,[9],3.11 µM
same,growth at 10 µM,[10],-39%
same,growth at 10 µM,[11],-68%
same,growth at 0.1 µM,[12],111%
same,growth at 0.1 µM,[13],96%
same,GI50,[14],2.18 µM
same,LC50,[14],> 100 µM
same,TGI,[14],6.4 µM
same,GI50,[15],2.11 µM
same,LC50,[15],8.78 µM
same,TGI,[15],4.31 µM
same,GI50,[16],1.19 µM
same,LC50,[16],5.15 µM
same,TGI,[16],2.47 µM
same,growth at 100 µM,[17],-100%
same,growth at 0.01 µM,[18],94%
same,growth at 0.01 µM,[19],97%
same,growth at 0.01 µM,[20],100%
same,growth at 0.01 µM,[21],91%
same,growth at 0.1 µM,[22],97%
same,growth at 0.1 µM,[23],90%
same,GI50,[24],1.27 µM
same,LC50 (concentration killing 50% of cells),[24],5.38 µM
same,TGI,[24],2.61 µM
same,growth at 10 µM,[25],-64%
same,growth at 1 µM,[26],75%
same,growth at 1 µM,[27],91%
same,growth at 0.01 µM,[28],109%
same,growth at 0.1 µM,[29],86%
same,growth at 0.01 µM,[30],101%
same,growth at 0.01 µM,[31],95%
same,GI50,[32],1.65 µM
same,LC50,[32],6.79 µM
same,TGI,[32],3.35 µM
same,growth at 0.01 µM,[33],93%
same,growth at 100 µM,[34],-43%
same,growth at 0.01 µM,[35],104%
